Reference: US11666562B2, “Ilaprazole for inhibiting the release of enveloped viruses from cells” (Northwestern University, priority 2020, dated 2023)
Where two headings read alike, the source gives them in different places.

Assays:
[1] = tested on: HSV-2; assay: Release of HSV-2 from infected Vero cells, plaque assay; type: cell-based, Herpes simplex virus-2(A/B-G); settings: for EC50: Human alphaherpesvirus 2, MOI 0.1, 24 h, read-out: EC50, inhibition of HSV-2 release; for Total infectious virus (released plus inside cells), HSV-2: 24 h, freeze/thaw lysate
Experimental: We infected Vero cells with HSV-1 and HSV-2 for two hours at a multiplicity of infection (MOI in pfu\cell) of 0.1 to assay the antiviral activity of tenatoprazole. Following infection, cells were treated with different concentrations of tenatoprazole. After 24 or 48 h the media fractions were collected and released virus titers were determined by standard plaque assays (30). Tenatoprazole caused a 3-log drop of HSV-1 and 4-5 log drop of HSV-2 in released infectious virus from Vero cells at 24 hours after infection in a dose dependent manner (Table 1, shown in FIG. 5, columns 2 and 3) with calculated EC50's ranging from 48-80 μM. Total virus titer was also determined to differentiate between virus released into the media and infectious particles present in cell lysate. […] The concentrations of tenatoprazole that blocked virus release were nontoxic to Vero cells as determined by a 96® AQueous One Solution cell proliferation assay reagent (Table 1, shown in FIG. 5, column 7). Taken together, tenatoprazole inhibited levels of both released and infectious virus particles without affecting cell viability at effective concentrations.
To examine the effects of the compounds on the release of HSV-2 from Vero cells, we infected the cells with virus two hours prior to treatment with media containing different concentrations of compound. We incubated the cells for 24 or 48 hours and then collected the cell media fractions.
Herpesvirus infection of Vero cells. Vero cells (0.8×10^6 cells/well of a 6-well plate) were infected with HSV-1 or HSV-2 at a MOI of 0.1 pfu/cell in DMEM with 1% serum for two hours in the C02 incubator at 37° C. In one experiment looking at the effect of tenatoprazole on HSV-2 release from cells 24 and 48 h a MOI of 3 pfu/cell was used. The cell supernatants were aspirated and replaced with 1 ml (24 h) or 2 ml (48 h and 72 h) of DMEM with 1% serum with DMSO or different concentrations of drug (tenatoprazole, ilaprazole, or analogs) dissolved in DMSO. After 24 or 48 h incubation, the cell supernatant was collected and frozen at −80° C. Virus titer in the cell media fraction was determined by standard plaque assays using 10-fold serial dilutions of cell supernatants of Vero cells and incubated for 48 h after which cells were fixed and stained to count the plaques (22). For determination of total virus (extracellular+cytoplasmic), virus infected cells were incubated for 24 h with and without drug presence, then the plate of cells were subjected to 3 cycles of freeze/thawing (−80° C./37° C.) 30 min each prior to collecting the supernatant after centrifugation for measurement of total virus titer. Virus titer was measured by standard plaque assay as above.
(§1) Drug potency and cell toxicity. EC50 calculations were determined by using AAT Bioquest's EC50 calculator. Cell toxicity at different concentrations of drugs as indicated was determine using the Cell Proliferation Reagent WST-1 (Roche Diagnostics) or cellular 96® Aqueous One Reagent viability reagent according to manufacturer's instructions. For 293T cells, the concentration of DMSO was 0.2% or less and assays were carried out with DMEM with 10% serum. Cell toxicity experiments were repeated twice.

[2] = tested on: Vero cells; assay: Vero cell viability/toxicity (96 AQueous One Solution / WST-1); type: cell-based
Experimental: as §1

| SMILES | EC50 ([1]; Vero cells) [µM] | Anti-HSV-2 activity (release from Vero cells), in words ([1]; Table 2, 24 h) | Total infectious virus (released plus inside cells), HSV-2 ([1]; Vero cells) | Cell toxicity to Vero cells [2] | Drop in released infectious HSV-2 ([1]; Vero cells, 24 hours after infection, dose dependent) | Duration of inhibition of HSV-2 release after a single application ([1]; data not shown) | Cell toxicity to Vero cells ([2]; at concentrations that block virus release, 24 h) |
| --- | --- | --- | --- | --- | --- | --- | --- |
| COc1ccnc(C[S+]([O-])c2nc3ccc(-n4cccc4)cc3[nH]2)c1C (stereo not drawn) [Ilaprazole, 2-[(4-methoxy-3-methylpyridin-2-yl)methylsulfinyl]-6-pyrrol-1-yl-1H-benzimidazole] | 3 to 9 | potent antiviral activity | significant drop in total virus | did not observe cell toxicity |  |  |  |
| COc1ccc2[nH]c([S+]([O-])Cc3ncc(C)c(OC)c3C)nc2n1 (stereo not drawn) [Tenatoprazole] | 48 to 80 |  | reduced by tenatoprazole, but not as strongly as virus released into the media |  | 4-5 log | began to fall off after 48 h | nontoxic |
